pKd, pKi: −log10 of the molar value.
How the values were obtained:
[1] = biological target: T1, Suppressor of tumorigenicity 14 protein (Homo sapiens) (UniProt Q9Y5Y6); assay: Binding affinity to recombinant hexahistidine tagged human MT-SP1 (596 to 855 residues) expressed in Escherichia coli BL21 gold (DE3) cells assessed as change in enthalpy by ITC analysis
T1 sequence (whole entry): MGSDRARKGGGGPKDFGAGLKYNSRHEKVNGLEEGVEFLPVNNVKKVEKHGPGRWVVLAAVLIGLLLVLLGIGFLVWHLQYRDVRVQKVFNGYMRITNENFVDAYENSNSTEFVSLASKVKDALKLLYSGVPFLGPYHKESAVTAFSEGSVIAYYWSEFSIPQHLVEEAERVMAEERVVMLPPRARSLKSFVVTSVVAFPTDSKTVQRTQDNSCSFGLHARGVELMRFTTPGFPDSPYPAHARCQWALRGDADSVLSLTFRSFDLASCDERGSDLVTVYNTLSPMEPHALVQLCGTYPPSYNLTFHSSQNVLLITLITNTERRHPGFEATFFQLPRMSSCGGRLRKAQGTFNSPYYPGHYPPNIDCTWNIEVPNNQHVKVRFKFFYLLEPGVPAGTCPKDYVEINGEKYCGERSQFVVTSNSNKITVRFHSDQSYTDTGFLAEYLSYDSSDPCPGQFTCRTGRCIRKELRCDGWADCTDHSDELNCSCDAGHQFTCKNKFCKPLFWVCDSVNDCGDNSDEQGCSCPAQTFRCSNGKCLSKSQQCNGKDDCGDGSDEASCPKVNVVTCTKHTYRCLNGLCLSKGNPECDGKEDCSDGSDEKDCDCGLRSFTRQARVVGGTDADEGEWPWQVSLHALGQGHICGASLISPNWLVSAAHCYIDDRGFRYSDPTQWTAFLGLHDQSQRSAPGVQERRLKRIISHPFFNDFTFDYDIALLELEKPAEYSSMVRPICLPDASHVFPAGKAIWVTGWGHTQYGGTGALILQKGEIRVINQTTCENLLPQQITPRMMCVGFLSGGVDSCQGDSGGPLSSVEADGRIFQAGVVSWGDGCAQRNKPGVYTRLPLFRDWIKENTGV

[2] = biological target: T1, Suppressor of tumorigenicity 14 protein (Homo sapiens); assay: Binding affinity to recombinant hexahistidine tagged human MT-SP1 (596 to 855 residues) expressed in Escherichia coli BL21 gold (DE3) cells assessed as free energy change by ITC analysis
[3] = biological target: T1, Suppressor of tumorigenicity 14 protein (Homo sapiens); assay: Binding affinity to recombinant hexahistidine tagged human MT-SP1 (596 to 855 residues) expressed in Escherichia coli BL21 gold (DE3) cells assessed as change in entropy by ITC analysis
[4] = biological target: T2, Suppressor of tumorigenicity 14 protein (Homo sapiens, UniProt Q9Y5Y6); assay: Inhibition of human matriptase using Mes-D-Pro-Arg-AMC.2TFA as substrate incubated for 10 mins by fluorescence based assay
T2 sequence (Q9Y5Y6 whole entry): T1 sequence (whole entry)

[5] = biological target: T2, Suppressor of tumorigenicity 14 protein; assay: Binding affinity to recombinant hexahistidine tagged human MT-SP1 (596 to 855 residues) expressed in Escherichia coli BL21 gold (DE3) cells […] by ITC analysis
[6] = biological target: T2, Suppressor of tumorigenicity 14 protein; assay: Inhibition of recombinant hexahistidine tagged human MT-SP1 (596 to 855 residues) expressed in Escherichia coli BL21 gold (DE3) cells using Boc-Leu-Arg-Arg-AMC as substrate measured every 30 secs for 10 mins by fluorescence based assay

deltaH [1] [kcal/mol]	deltaG [2] [kcal/mol]	-TdeltaS [3] [kcal/mol]	pKi [4]	pKd [5]	pKi [6]	SMILES
-3.35	-7.98	-4.64	5.37	5.84	–	N=C(N)c1ccc(CCNC(=O)CC(=O)NCCc2ccc(C(=N)N)cc2)cc1
-1.63	-8.82	-7.19	6.41	6.41	–	N=C(N)c1ccc(CCNC(=O)C(C(=O)NCCc2ccc(C(=N)N)cc2)C(=O)NCc2ccc(C(=N)N)cc2)cc1 (stereo not given)
2.03	-7.67	-9.7	–	5.60	6.11	N=C(N)c1ccc(Oc2cc(Oc3ccc(CN)cc3)cc(Oc3ccc(CN)cc3)c2)cc1
1.24	-6.91	-8.15	–	4.99	4.74	NCc1ccc(Oc2cc(Oc3ccc(CN)cc3)cc(Oc3ccc(CN)cc3)c2)cc1

Reference: ChEMBL document CHEMBL5257156, “Improving binding entropy by higher ligand symmetry? - A case study with human matriptase” (RSC Med Chem, 2023)
